Data reported in patent US10968214B2, “KRas G12C inhibitors” (Eli Lilly and Company, priority 2018, dated 2021).
pIC50: −log10 of the molar value. Read-outs that look alike come from different tables or passages of the source.

Columns and labels:
CT-26-H4/KRas G12C = CT-26-H4/KRas G12C mouse syngeneic model, immuno-therapy combination; type: in vivo; conditions: Example 1 30 mg/kg BID × 21 PO, PD-L1 antibody 500 ug/mouse Q7D × 3 IP, PD-1 antibody 250 ug/mouse BIW × 3 IP
Source text: A mouse syngeneic model is used to evaluate the effects of KRas G12C inhibition and immuno-therapy combination. In this model, the KRas G12D mutation is converted to KRas G12C mutation by CRISPR knock-in in the CT-26 cell line, a mouse colorectal tumor cell line. The KRas G12C knock-in is confirmed by genetic and functional characterization. The engineered cell line is named CT-26-H4/KRas G12C. These cells are implanted to the Balb/c mice, and the compound treatment is started 6 days post tumor cell implantation. PD-1 and PD-L1 inhibitors are known in the art and include durvalumab, pembrolizumab, and nivolumab. […] After 3 weeks, compound treatment is stopped and all tumors in monotherapy groups with the exception of 1 animal in the anti-PD-1 group started to regrow. However, the tumors in the two combination groups have no signs of regrowth.

H358 = experiment: 3D H358 Cell Proliferation Assay; type: cell-based; conditions: Homo sapiens, NCI-H358; H358, 3D, 96 hr; read-out: relative IC50
Description: Human lung cancer cells, H358, (ATCC CRL-5807) are used to evaluate compound inhibition in a 3D proliferation assay. Signal reflecting cell proliferation is detected with the CellTiterGlo® 3D reagent (Promega G9683). The cells are grown in RPMI 1640 (GIBCO®) supplemented with 10% heat inactivated FBS and 0.1 mg/ml penicillin/streptomycin. H358 cells are cultured in the growth phase and five thousand cells per well are plated in a black well clear round bottom 96-well ultra-low attachment surface plate (Corning® Cat 4520) with 80 μl/well of culture media. Cells are incubated overnight at 37° C. in a humidity chamber. 20 μl/well of serially diluted test compound is added to the plate which is then incubated for 96 hr. Plates are brought to RT and an equal volume of RT CellTiterGlo® 3D reagent is added. Plates are shaken at 750 RPM for 10 min at RT After a 1 hr incubation at RT to stabilize the signal, the luminescent signal is measured on the EnVision™ plate reader. The signal is converted to percent inhibition using the following equation: % Inhibition=100−[(Test Compound Signal−Median Minimum Signal)/(Median Maximum Signal−Median Minimum Signal)×100]. The Max Signal is a control well without inhibitor.

HCC-44 = experiment: CellTiterGlo Cell Proliferation Assay, HCC-44; type: cell-based; conditions: Homo sapiens, HCC44, KRas G12C, Lung, 96 hr, read-out: IC50 (μM) in 2 D cell proliferation
Description: (§1) A panel of tumor cell lines harboring KRas G12C or other KRas mutations are collected (Table 6). All cell lines are from ATCC or other sources indicated.
(§2) Typically cells are cultured in RPMI1640 or Dulbecco's modified Eagle's medium (DMEM, GIBCO) supplemented with 10% FBS (GIBCO, Invitrogen). For 2D culture cells (4×10^3/well) maintained in growth medium described above, are plated onto 96 well tissue culture plates Corning® Cat. 3603) a day before the treatment. For 3D culture 8000 cells/well are seeded onto 96 well ultra-low attachment tissue culture plates (Corning, #3474). The cells are treated compound for 96 hr, and then are analyzed for viability using the CellTiterGlo® Luminescent Cell Viability Assay® (Promega #G7572 for 2D and Promega #G9683 for 3D cultures) according to manufacturer's instructions and an EnVision™ plate reader. Nonlinear regression and sigmoidal dose-response curves are used to calculate the half maximal inhibitory concentration (IC50) with GraphPad Prism 4® software.

H1975 = experiment: CellTiterGlo Cell Proliferation Assay, H1975; type: cell-based; conditions: Homo sapiens, NCI-H1975, KRas wild type, lung, 96 hr
Description: as §1, §2

D122-96 = experiment: CellTiterGlo Cell Proliferation Assay, D122-96; type: cell-based; conditions: KRas G12C, Lung (mouse), 96 hr
Description: as §1, §2

UM-UC-3 = experiment: CellTiterGlo Cell Proliferation Assay, UM-UC-3; type: cell-based; conditions: Homo sapiens, UMUC3, KRas G12C, Bladder, 96 hr
Description: as §1, §2

HCC827 = experiment: CellTiterGlo Cell Proliferation Assay, HCC827; type: cell-based; conditions: Homo sapiens, KRas wild type, lung, 96 hr
Description: as §1, §2

H2030 xenograft = experiment: Anti-tumor growth activity, H2030 lung xenograft; type: in vivo; conditions: 28 Day, negative = regression
H2122 = experiment: CellTiterGlo Cell Proliferation Assay, H2122; type: cell-based; conditions: Homo sapiens, NCI-H2122, KRas G12C, Lung, 96 hr
Description: as §1, §2

[1] = read-out: IC50 (μM) in 2 D cell proliferation
[2] = read-out: IC50 (μM) in 3 D spheroid cell proliferation

C=CC(=O)N1CCN(c2ncnc3c(F)c(-c4ccc(F)c5sc(N)nc45)c(Cl)cc23)CC1 [Example 1, 1-{4-[7-(2-Amino-7-fluoro-1,3-benzothiazol-4-yl)-6-chloro-8-fluoroquinazolin-4-yl]piperazin-1-yl}prop-2-en-1-one]
Complete Response (% CR) (CT-26-H4/KRas G12C; 40 days post treatment): 0% | Complete Response (CR)/group mice (CT-26-H4/KRas G12C; 40 days post treatment): 0/10 | % Tumor Growth Inhibition (CT-26-H4/KRas G12C; End of treatment at day 28): 96% | Complete Response (% CR) (CT-26-H4/KRas G12C; End of treatment at day 28): 10% | Complete Response (CR)/group mice (CT-26-H4/KRas G12C; End of treatment at day 28): 1/10 | pIC50 (H358): > 7.94 | IC50 (HCC-44): 0.221 µM | IC50 (H1975; [1]): 18.7 µM | IC50 (H1975; [2]): 6.2 µM | IC50 (D122-96; [1]): 0.126 µM | IC50 (D122-96; [2]): 0.069 µM | IC50 (UM-UC-3; [1]): 0.124 µM | IC50 (UM-UC-3; [2]): 0.075 µM | IC50 (HCC827; [1]): 18.9 µM | IC50 (HCC827; [2]): 4.63 µM | Tumor Growth Inhibition (%) or Regression (−%) (H2030 xenograft; 15 mg/kg BID): 82% | Tumor Growth Inhibition (%) or Regression (−%) (H2030 xenograft; 30 mg/kg BID): 91.9% | Tumor Growth Inhibition (%) or Regression (−%) (H2030 xenograft; 30 mg/kg QD): 75.1% | IC50 (H2122; [1]): 0.187 µM | IC50 (H2122; [2]): 0.017 µM
